Target: human BTK (Homo sapiens (Human), UniProt Q06187)
Experiment: BTK inhibition assay (phosphorylation of 5-FAM-labeled substrate, Caliper LC-3000)
Format: biochemical
Conditions: residues 382 to 659 of human BTK; 60 minutes at room temperature
From the text: The activity of compound of Formula 1, stereoisomer thereof, or tautomers of the compound as Formula 1 or stereoisomer thereof, as BTK inhibitors may be determined by a variety of methods, including in vitro and in vivo methods. The following in vitro assay measures a test compound's ability to inhibit BTK-mediated phosphorylation of a FAM-labeled substrate, 5-FAM-[…]-NH2.
Purified BTK may be obtained as follows (Clone SBVC-1603_9P is used). A cDNA sequence encoding residues 382 to 659 of human BTK is cloned into the vector pSXB4. This construct engineers an in-frame translational fusion with the Glutathione-S-Transferase (GST) protein for use in affinity purification. The fusion protein derived from this construct contains a protease recognition sequence to liberate the BTK from the GST affinity tag. High-titer baculoviral stocks, generated using the Bac-to-Bac® system (Invitrogen), are used to express the recombinant protein in Spodoptera frugiperda Sf9 cells in 10 L Wave bags. Recombinant proteins are isolated from cellular extracts by passage over Glutathione Sepharose 4B (GE Healthcare) and the BTK moiety is released from the GST affinity tag by treatment with PreScission protease. […] The purity of the fractions is assessed by SDS PAGE and the peak protein fractions are pooled and concentrated using Amicon Ultra-15 Centrifugal Filter Devices (Millipore).

human BTK, sequence (Q06187 382-659): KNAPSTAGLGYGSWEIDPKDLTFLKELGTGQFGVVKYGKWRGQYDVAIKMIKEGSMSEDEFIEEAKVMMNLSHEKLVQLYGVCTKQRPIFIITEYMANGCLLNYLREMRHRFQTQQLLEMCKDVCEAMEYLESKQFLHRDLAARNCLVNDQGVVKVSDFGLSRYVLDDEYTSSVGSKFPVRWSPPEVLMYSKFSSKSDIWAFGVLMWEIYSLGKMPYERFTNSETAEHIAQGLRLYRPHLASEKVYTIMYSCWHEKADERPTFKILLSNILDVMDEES

C=CC(=O)N1CC[C@H](Oc2nc(-c3n[nH]c(=O)[nH]3)cc3ccccc23)C1 [Example 1, (S)-3-(1-((1-acryloylpyrrolidin-3-yl)oxy)isoquinolin-3-yl)-1H-1,2,4-triazol-5(4H)-one]
BTK Inhibition (pIC50): >8.7
